Laboratory results published in patent US6673812B1, “Preventives/remedies for glaucoma” (Senju Pharmaceutical Co., Ltd., priority 1998, dated 2004).

System: Japanese white rabbits
Assay: Ophthalmic disorder caused by 8-time-a-day instillation to white rabbits: macroscopic observation of anterior segment of the eye
Format: in vivo, rabbit
Parameters: scale not given here
Conditions: mean of three eyes
Description: The test drugs, Compound A and Compound C, were each dissolved in the following base at a concentration of 0.125, 0.25, 0.5 and 1.0% and adjusted to pH 7 for use in this experiment. [table] Japanese white rabbits (body weight about 2 kg) purchased from Japan Laboratory Animals, INC. were used. These animals were bred in a breeding chamber set to temperature 23±3° C., humidity 55±10% and fed on limited amount of 100 g a day of a solid feed (Labo R Stock, Nihon-Nosan Kogyo K.K.). They were allowed free access to tap water. Instillation: Using a micropipet, each test drug (100 μl) was instilled into the right eye of each animal 8 times at one hour intervals. Into the left eye was instilled a base in the same manner. Observation: anterior segment of the eye was macroscopically observed before instillation and 30 min after 2nd, 4th, 6th and 8th administrations, according to the macroscopic criteria for ocular lesions as shown in Table 1 (Naruyuki Fukui, […] no Rinshou 4, 277-289, 1970). In addition, corneal staining spot was observed before instillation and after 8th administration. [table]

[1] = 0.125%, 30 min after 2nd instillation
[2] = 0.125%, 30 min after 4th instillation
[3] = 0.125%, 30 min after 6th instillation
[4] = 0.125%, 30 min after 8th instillation
[5] = 0.25%, 30 min after 2nd instillation
[6] = 0.25%, 30 min after 4th instillation
[7] = 0.25%, 30 min after 6th instillation
[8] = 0.25%, 30 min after 8th instillation
[9] = 0.5%, 30 min after 2nd instillation
[10] = 0.5%, 30 min after 4th instillation
[11] = 0.5%, 30 min after 6th instillation
[12] = 0.5%, 30 min after 8th instillation
[13] = 1.0%, 30 min after 2nd instillation
[14] = 1.0%, 30 min after 4th instillation
[15] = 1.0%, 30 min after 6th instillation
[16] = 1.0%, 30 min after 8th instillation

## CC(N)[C@H]1CC[C@H](C(=O)Nc2ccncc2)CC1.Cl.Cl.O (single isomer, unassigned; (+)) [Compound A, (+)-trans-4-(1-Aminoethyl)-1-(4-pyridylcarbamoyl)cyclohexane 2HCl 1H2O]
[1]
  Score of ocular lesions: Conjunctiva Bulbar redness: 0.33
  Score of ocular lesions: Conjunctiva Discharge: 0
  Score of ocular lesions: Conjunctiva Nictitating membrane: 0
  Score of ocular lesions: Conjunctiva Palpebral edema: 0
  Score of ocular lesions: Conjunctiva Palpebral redness: 0.17
  Score of ocular lesions: Cornea Area: 0
  Score of ocular lesions: Cornea Degree: 0
  Score of ocular lesions: Iris Values: 0
  Score of ocular lesions: Total score: 0.50
[2]
  Score of ocular lesions: Conjunctiva Bulbar redness: 0.33
  Score of ocular lesions: Conjunctiva Discharge: 0.17
  Score of ocular lesions: Conjunctiva Nictitating membrane: 0
  Score of ocular lesions: Conjunctiva Palpebral edema: 0
  Score of ocular lesions: Conjunctiva Palpebral redness: 0
  Score of ocular lesions: Cornea Area: 0
  Score of ocular lesions: Cornea Degree: 0
  Score of ocular lesions: Iris Values: 0
  Score of ocular lesions: Total score: 0.50
[3]
  Score of ocular lesions: Conjunctiva Bulbar redness: 0.33
  Score of ocular lesions: Conjunctiva Discharge: 0.50
  Score of ocular lesions: Conjunctiva Nictitating membrane: 0
  Score of ocular lesions: Conjunctiva Palpebral edema: 0.33
  Score of ocular lesions: Conjunctiva Palpebral redness: 0.33
  Score of ocular lesions: Cornea Area: 0
  Score of ocular lesions: Cornea Degree: 0
  Score of ocular lesions: Iris Values: 0
  Score of ocular lesions: Total score: 1.99
[4]
  Score of ocular lesions: Conjunctiva Bulbar redness: 0.33
  Score of ocular lesions: Conjunctiva Discharge: 0
  Score of ocular lesions: Conjunctiva Nictitating membrane: 0.17
  Score of ocular lesions: Conjunctiva Palpebral edema: 0.50
  Score of ocular lesions: Conjunctiva Palpebral redness: 0.33
  Score of ocular lesions: Cornea Area: 0
  Score of ocular lesions: Cornea Degree: 0
  Score of ocular lesions: Iris Values: 0
  Score of ocular lesions: Total score: 1.33
0.125%, Before instillation
  Score of ocular lesions: Conjunctiva Bulbar redness: 0
  Score of ocular lesions: Conjunctiva Discharge: 0
  Score of ocular lesions: Conjunctiva Nictitating membrane: 0
  Score of ocular lesions: Conjunctiva Palpebral edema: 0
  Score of ocular lesions: Conjunctiva Palpebral redness: 0
  Score of ocular lesions: Cornea Area: 0
  Score of ocular lesions: Cornea Degree: 0
  Score of ocular lesions: Iris Values: 0
  Score of ocular lesions: Total score: 0
[5]
  Score of ocular lesions: Conjunctiva Bulbar redness: 0.50
  Score of ocular lesions: Conjunctiva Discharge: 0
  Score of ocular lesions: Conjunctiva Nictitating membrane: 0.17
  Score of ocular lesions: Conjunctiva Palpebral edema: 0
  Score of ocular lesions: Conjunctiva Palpebral redness: 0.17
  Score of ocular lesions: Cornea Area: 0
  Score of ocular lesions: Cornea Degree: 0
  Score of ocular lesions: Iris Values: 0
  Score of ocular lesions: Total score: 0.84
[6]
  Score of ocular lesions: Conjunctiva Bulbar redness: 0.50
  Score of ocular lesions: Conjunctiva Discharge: 0.17
  Score of ocular lesions: Conjunctiva Nictitating membrane: 0.50
  Score of ocular lesions: Conjunctiva Palpebral edema: 0
  Score of ocular lesions: Conjunctiva Palpebral redness: 0
  Score of ocular lesions: Cornea Area: 0
  Score of ocular lesions: Cornea Degree: 0
  Score of ocular lesions: Iris Values: 0
  Score of ocular lesions: Total score: 1.00
[7]
  Score of ocular lesions: Conjunctiva Bulbar redness: 0.50
  Score of ocular lesions: Conjunctiva Discharge: 0.50
  Score of ocular lesions: Conjunctiva Nictitating membrane: 0.50
  Score of ocular lesions: Conjunctiva Palpebral edema: 0.17
  Score of ocular lesions: Conjunctiva Palpebral redness: 0.33
  Score of ocular lesions: Cornea Area: 0
  Score of ocular lesions: Cornea Degree: 0
  Score of ocular lesions: Iris Values: 0
  Score of ocular lesions: Total score: 1.50
[8]
  Score of ocular lesions: Conjunctiva Bulbar redness: 0.83
  Score of ocular lesions: Conjunctiva Discharge: 0
  Score of ocular lesions: Conjunctiva Nictitating membrane: 0.50
  Score of ocular lesions: Conjunctiva Palpebral edema: 0
  Score of ocular lesions: Conjunctiva Palpebral redness: 0.33
  Score of ocular lesions: Cornea Area: 0
  Score of ocular lesions: Cornea Degree: 0
  Score of ocular lesions: Iris Values: 0
  Score of ocular lesions: Total score: 1.66
0.25%, Before instillation
  Score of ocular lesions: Conjunctiva Bulbar redness: 0
  Score of ocular lesions: Conjunctiva Discharge: 0
  Score of ocular lesions: Conjunctiva Nictitating membrane: 0
  Score of ocular lesions: Conjunctiva Palpebral edema: 0
  Score of ocular lesions: Conjunctiva Palpebral redness: 0
  Score of ocular lesions: Cornea Area: 0
  Score of ocular lesions: Cornea Degree: 0
  Score of ocular lesions: Iris Values: 0
  Score of ocular lesions: Total score: 0
[9]
  Score of ocular lesions: Conjunctiva Bulbar redness: 0.50
  Score of ocular lesions: Conjunctiva Discharge: 0
  Score of ocular lesions: Conjunctiva Nictitating membrane: 0
  Score of ocular lesions: Conjunctiva Palpebral edema: 0.17
  Score of ocular lesions: Conjunctiva Palpebral redness: 0.17
  Score of ocular lesions: Cornea Area: 0
  Score of ocular lesions: Cornea Degree: 0
  Score of ocular lesions: Iris Values: 0
  Score of ocular lesions: Total score: 0.49
[10]
  Score of ocular lesions: Conjunctiva Bulbar redness: 0.50
  Score of ocular lesions: Conjunctiva Discharge: 0.33
  Score of ocular lesions: Conjunctiva Nictitating membrane: 0.33
  Score of ocular lesions: Conjunctiva Palpebral edema: 0.17
  Score of ocular lesions: Conjunctiva Palpebral redness: 0.17
  Score of ocular lesions: Cornea Area: 0
  Score of ocular lesions: Cornea Degree: 0
  Score of ocular lesions: Iris Values: 0
  Score of ocular lesions: Total score: 1.50
[11]
  Score of ocular lesions: Conjunctiva Bulbar redness: 0.50
  Score of ocular lesions: Conjunctiva Discharge: 2.67
  Score of ocular lesions: Conjunctiva Nictitating membrane: 0.50
  Score of ocular lesions: Conjunctiva Palpebral edema: 0.83
  Score of ocular lesions: Conjunctiva Palpebral redness: 0.67
  Score of ocular lesions: Cornea Area: 0
  Score of ocular lesions: Cornea Degree: 0
  Score of ocular lesions: Iris Values: 0
  Score of ocular lesions: Total score: 5.17
[12]
  Score of ocular lesions: Conjunctiva Bulbar redness: 0.83
  Score of ocular lesions: Conjunctiva Discharge: 1.17
  Score of ocular lesions: Conjunctiva Nictitating membrane: 0.67
  Score of ocular lesions: Conjunctiva Palpebral edema: 0.67
  Score of ocular lesions: Conjunctiva Palpebral redness: 0.67
  Score of ocular lesions: Cornea Area: 0
  Score of ocular lesions: Cornea Degree: 0
  Score of ocular lesions: Iris Values: 0
  Score of ocular lesions: Total score: 4.01
0.5%, Before instillation
  Score of ocular lesions: Conjunctiva Bulbar redness: 0.17
  Score of ocular lesions: Conjunctiva Discharge: 0
  Score of ocular lesions: Conjunctiva Nictitating membrane: 0
  Score of ocular lesions: Conjunctiva Palpebral edema: 0
  Score of ocular lesions: Conjunctiva Palpebral redness: 0
  Score of ocular lesions: Cornea Area: 0
  Score of ocular lesions: Cornea Degree: 0
  Score of ocular lesions: Iris Values: 0
  Score of ocular lesions: Total score: 0.17
[13]
  Score of ocular lesions: Conjunctiva Bulbar redness: 0.50
  Score of ocular lesions: Conjunctiva Discharge: 0.33
  Score of ocular lesions: Conjunctiva Nictitating membrane: 0.17
  Score of ocular lesions: Conjunctiva Palpebral edema: 0.67
  Score of ocular lesions: Conjunctiva Palpebral redness: 0.50
  Score of ocular lesions: Cornea Area: 0
  Score of ocular lesions: Cornea Degree: 0
  Score of ocular lesions: Iris Values: 0
  Score of ocular lesions: Total score: 2.17
[14]
  Score of ocular lesions: Conjunctiva Bulbar redness: 0.50
  Score of ocular lesions: Conjunctiva Discharge: 0.67
  Score of ocular lesions: Conjunctiva Nictitating membrane: 0.50
  Score of ocular lesions: Conjunctiva Palpebral edema: 0.67
  Score of ocular lesions: Conjunctiva Palpebral redness: 0.50
  Score of ocular lesions: Cornea Area: 0
  Score of ocular lesions: Cornea Degree: 0
  Score of ocular lesions: Iris Values: 0
  Score of ocular lesions: Total score: 2.84
[15]
  Score of ocular lesions: Conjunctiva Bulbar redness: 1.17
  Score of ocular lesions: Conjunctiva Discharge: 1.67
  Score of ocular lesions: Conjunctiva Nictitating membrane: 0.67
  Score of ocular lesions: Conjunctiva Palpebral edema: 1.33
  Score of ocular lesions: Conjunctiva Palpebral redness: 0.83
  Score of ocular lesions: Cornea Area: 0
  Score of ocular lesions: Cornea Degree: 0
  Score of ocular lesions: Iris Values: 0
  Score of ocular lesions: Total score: 5.67
[16]
  Score of ocular lesions: Conjunctiva Bulbar redness: 1.50
  Score of ocular lesions: Conjunctiva Discharge: 2.33
  Score of ocular lesions: Conjunctiva Nictitating membrane: 1.67
  Score of ocular lesions: Conjunctiva Palpebral edema: 3.00
  Score of ocular lesions: Conjunctiva Palpebral redness: 2.17
  Score of ocular lesions: Cornea Area: 0
  Score of ocular lesions: Cornea Degree: 0
  Score of ocular lesions: Iris Values: 0
  Score of ocular lesions: Total score: 10.67
1.0%, Before instillation
  Score of ocular lesions: Conjunctiva Bulbar redness: 0
  Score of ocular lesions: Conjunctiva Discharge: 0
  Score of ocular lesions: Conjunctiva Nictitating membrane: 0
  Score of ocular lesions: Conjunctiva Palpebral edema: 0
  Score of ocular lesions: Conjunctiva Palpebral redness: 0.17
  Score of ocular lesions: Cornea Area: 0
  Score of ocular lesions: Cornea Degree: 0
  Score of ocular lesions: Iris Values: 0
  Score of ocular lesions: Total score: 0.17
